US20030065030A1, “Autonomic controlling agents and health drinks and foods” (priority 2001, published 2003)

Test system: 2DG hyperglycemic rats
Assay: anti-hyperglycemia in the 2DG hyperglycemic rats
Format: in vivo, rat
Conditions: 10 ng intracranially administered
From the text: Since blood glucose levels are expected to be reduced when the activity of the autonomic nervous system is controlled by carnosine at a low dose, the effect of carnosine on anti-hyperglycemia in the 2DG hyperglycemic rats was investigated according to the method of Chun et al. (Brain Research 809:165-174, 1998). Wistar male rats (initial weight, about 250 g) were used that had been acclimated for at least 10 days to an environment in a room illuminated with an incandescent light of 80 lux on the average for 12 hours at room temperature (24 +/− 1° C.) with free access to the feed.
Three days before the experiment, rats under anesthesia with pentobarbital (35 mg/kg body weight, intraperitoneal administration) received the insertion of a cardiac catheter comprising a silastic tubing (Dow Corning, Midland, Mich.) and a polyethylene tubing (Clay Adams, Parsippany, N.J.) into the right atrium and a polyethylene tubing into the right lateral cerebral ventricle (LCV). On the day of the experiment, carnosine dissolved in physiological saline was administered to the rats intracranially (0.01 ml) or intraperitoneally (0.1 ml) with the simultaneous administration into the rat LCV of 80 μmol 2-deoxy-D-glucose (2DG, 0.01 ml). The control rats received physiological saline instead of carnosine and an artificial cerebrospinal fluid in stead of 2DG, each at the same amount.
Sixty minutes after the administration of 2DG into the LCV, 300 μl of blood was taken via the cardiac catheter and the plasma level of glucose was determined. The glucose concentrations in the plasma were measured using the Fuji-Dri-chem system (Fuji Film Tokyo) according to the glucose oxidase method. Changes in plasma concentrations of glucose were expressed as a ratio (%) relative to the control value at 90 minutes after 2DG administration set at 100. Four or five rats were used in the experiments. Data were tested with ANOVA (p<0.05) and were expressed as mean +/− standard error.

## Cn1cncc1C[C@H](NC(=O)CCN)C(=O)O [anserine, reference compound]
  effect on hyperglycemia: did not suppress hyperglycemia
